Columns and labels:
Format in all cases: in vivo
[1] = tested on: cockroaches (Blatta orientalis); assay: whole plant or invertebrate; details: 48 hours; for mortality at 0.2 mg: 0.2 mg active ingredient per jar; for mortality at 0.1 mg: 0.1 mg active ingredient per jar
Protocol: Contact action on cockroaches (Blatta orientalis)
The bottom of 1-liter preserving jars is treated with acetonic solutions of the active ingredients. After the solvent has evaporated, 5 adult cockroaches are placed in each jar, and the kill rate is determined after 48 hours.

[2] = tested on: bean aphids (Aphis fabae); assay: Contact action on bean aphids (Aphis fabae); spray experiment; details: 48 hours; for mortality at 0.005 %: 0.005 wt % in formulation; for mortality at 0.01 %: 0.01 wt % in formulation
Protocol: Contact action on bean aphids (Aphis fabae); spray experiment
Potted bean plants (Vicia faba) with extensive bean aphid colonies are sprayed to runoff in a spray booth with aqueous formulations of the active ingredients.
(§1) The action is assessed after 48 hours.

[3] = tested on: caterpillars of the diamondback moth (Plutella maculipennis); assay: Contact action and effect of ingested food on caterpillars of the diamondback moth (Plutella maculipennis); details: 4th stage caterpillars, 48 hours, read-out: Kill rate; for mortality at 0.02 %: 0.02 wt % in emulsion; for mortality at 0.01 %: 0.01 wt % in emulsion; for mortality at 0.001 %: 0.001 wt % in emulsion; for mortality at 0.002 %: 0.002 wt % in emulsion
Protocol: Contact action and effect of ingested food on caterpillars of the diamondback moth (Plutella maculipennis)
Leaves of young cabbage plants are dipped for 3 seconds in aqueous emulsions of the active ingredients and, after excess liquid has been briefly allowed to drip off, placed on a moist filter paper in a Petri dish. 10 caterpillars of the 4th stage are then placed on each leaf.
as §1

[4] = tested on: ticks (Ornithodorus moubata); assay: Contact action on ticks (Ornithodorus moubata); details: 3rd larval stage, 48 hours
Protocol: Contact action on ticks (Ornithodorus moubata)
Ticks in the 3rd larval stage are placed in paper bags and dipped for 3 seconds in the emulsion under investigation. The bags are then suspended. The action on the ticks is assessed after 48 hours.

[5] = tested on: houseflies (Musca domestica); assay: whole plant or invertebrate; details: 4 hours; for mortality at 0.02 mg: 0.02 mg active ingredient per dish
Protocol: Continuous contact action on houseflies (Musca domestica)
Both covers and bottoms of Petri dishes 10 cm in diameter are lined with a total per dish of 2 ml of acetonic solutions of the active ingredients. After the solvent has evaporated (about 30 mins.), 10 flies are introduced into each dish. The kill rate is determined after 4 hours.

[6] = tested on: houseflies (Musca domestica); assay: Contact action on houseflies (Musca domestica), topical to ventral abdomen; details: 1 μl in acetone to ventral abdomen; 4-day old imagoes; 4 hours; worked out by graph
Protocol: Contact action on houseflies (Musca domestica)
1 μl of the active ingredients dissolved in acetone is administered by means of a microsyringe to the ventral abdomen of 4-day old imagoes under slight CO2 narcosis.
20 animals treated in the same way are then placed in a plastic bag having a volume of approx. 500 ml. After 4 hours, the animals in supine position are counted and the LD50 is worked out by means of a graph.

[7] = tested on: root-knot nematodes (Meloidogyne incognita); assay: Action on root-knot nematodes (Meloidogyne incognita); details: cucumber, 6 to 8 weeks
Protocol: Action on root-knot nematodes (Meloidogyne incognita)
Garden soil heavily infested with Meloidogyne incognita is split into 200 g portions which are intimately mixed with 30 ml of aqueous active ingredient formulations and filled into plastic pots. Two cucumber seeds are then placed in the soil prepared in this manner. The temperature is not allowed to go below +22° C.
After 6 to 8 weeks root attack is assessed.

[8] = Aphis fabae, 0.02 wt % in formulation, read-out: Kill rate
[9] = Aphis fabae, read-out: Kill rate
[10] = Musca domestica, read-out: Kill rate
[11] = Blatta orientalis, read-out: Kill rate
[12] = Musca domestica, 0.2 mg active ingredient per dish, read-out: Kill rate

CCOP(=O)(OCC1C(C)(C)C1(Cl)Cl)Oc1ccc([N+](=O)[O-])cc1 (centres unmarked) [Active ingredient 1, O-ethyl-O-[(2,2-dichloro-3,3-dimethyl-cyclopropyl)-methyl]-O-(4-nitrophenyl)phosphate]
mortality at 0.25 mg ([1]; Blatta orientalis, 0.25 mg active ingredient per jar, 5 adult cockroaches, read-out: Kill rate): 80% | mortality at 0.02 % [2, 8]: 100% | mortality at 0.02 % [3]: 100% | Kill rate ([4]; 10.0 ppm in emulsion): 100%

COP(=O)(OCC1CC1(Cl)Cl)Oc1ccccc1[N+](=O)[O-] (centres unmarked) [Active ingredient 3, O-methyl-O-[(2,2-dichlorocyclopropyl)-methyl]-O-(2-nitrophenyl)phosphate]
mortality at 0.005 % [2, 9]: 100%

COP(=O)(OCC1CC1(Cl)Cl)Oc1cc(Cl)c(Cl)cc1Cl (centres unmarked) [Active ingredient 4, O-methyl-O-[(2,2-dichloro-cyclopropyl)-methyl]-O-(2,4,5-trichlorophenyl)phosphate]
mortality at 0.02 mg [5, 10]: 100% | LD50 [6]: 0.055 μg/fly | mortality at 0.01 % [2, 9]: ~90% | Kill rate ([4]; 5.0 ppm in emulsion): 100%

COP(=S)(OC)Oc1cc(Cl)c(Cl)cc1Cl [III]
mortality at 0.5 mg ([1]; Blatta orientalis, 0.5 mg active ingredient per jar, read-out: Kill rate): 100% | LD50 [6]: 0.13 μg/fly | mortality at 0.02 % [3]: 50%

CCOP(=S)(Oc1ccc(Cl)cc1Cl)c1ccccc1 (centres unmarked) [II]
Kill rate ([1]; 1.0 mg active ingredient per jar): ineffective | Kill rate ([5]; 0.2 mg active ingredient per dish): ineffective | Kill rate ([2]; 0.02 wt % in formulation): < 80%

COP(=S)(OC)Oc1ccc([N+](=O)[O-])c(C)c1 [IV]
Kill rate ([1]; 0.25 mg active ingredient per jar, 5 adult cockroaches): ineffective

CCOP(=S)(OCC)SCC1CC1(Cl)Cl (centres unmarked) [I]
mortality at 5 mg ([1]; Blatta orientalis, 5.0 mg active ingredient per jar, read-out: Kill rate): 100% | mortality at 2 mg ([5]; Musca domestica, 2.0 mg active ingredient per dish, read-out: Kill rate): 100% | mortality at 0.1 % ([2]; Aphis fabae, 0.1 wt % in formulation, read-out: Kill rate): < 50% | mortality at 0.1 % ([3]; 0.1 wt % in emulsion): 50% | root attack (root-knots) ([7]; 0.1 % active ingredient concentration, ditto mark repeats "no root-knots"): sporadic root-knots

COP(=O)(OCC1C(C)(C)C1(Cl)Cl)Oc1ccc([N+](=O)[O-])cc1 (centres unmarked) [compound 7]
mortality at 0.2 mg [1, 11]: 100% | mortality at 0.2 mg [5, 12]: 100% | mortality at 0.01 % [2, 9]: ~90% | mortality at 0.01 % [3]: 80% | Kill rate ([4]; 10.0 ppm in emulsion): 100%

COP(=O)(OCC1(C)CC1(Cl)Cl)Oc1ccc([N+](=O)[O-])cc1 (centres unmarked) [compound 10]
mortality at 0.04 mg ([1]; Blatta orientalis, 0.04 mg active ingredient per jar, read-out: Kill rate): 100% | mortality at 0.2 mg [5, 12]: 100% | mortality at 0.01 % [2, 9]: 100% | mortality at 0.01 % [3]: 100% | Kill rate ([4]; 10.0 ppm in emulsion): 100%

COP(=O)(OCC1C(C)(C)C1(Cl)Cl)Oc1ccccc1[N+](=O)[O-] (centres unmarked) [compound 14]
Kill rate ([4]; 10.0 ppm in emulsion): 100%

COP(=O)(OCC1(C)CC1(Cl)Cl)Oc1cc(Cl)c(Cl)cc1Cl (centres unmarked) [compound 16]
root attack (root-knots) ([7]; 0.05 % active ingredient concentration): no root-knots

COP(=O)(OCC1C(C)(C)C1(Cl)Cl)Oc1ccc(SC)cc1 (centres unmarked) [compound 17]
mortality at 0.2 mg [5, 12]: 80% | Kill rate ([4]; 2.5 ppm in emulsion): 100%

CCOP(=O)(OCC1C(C)(C)C1(Cl)Cl)Oc1ccc(SC)cc1 (centres unmarked) [compound 18]
Kill rate ([4]; 2.5 ppm in emulsion): 100%

CCOP(=O)(OCC1C(C)(C)C1(Cl)Cl)Oc1ccc(SC)c(C)c1 (centres unmarked) [compound 19]
Kill rate ([4]; 10.0 ppm in emulsion): 100%

COP(=O)(OCC1C(C)(C)C1(Cl)Cl)Oc1ccc(SC)c(C)c1 (centres unmarked) [compound 20]
Kill rate ([4]; 2.5 ppm in emulsion): 100%

COP(=O)(OCC1(C)CC1(Cl)Cl)Oc1ccc(SC)cc1 (centres unmarked) [compound 21]
mortality at 0.1 mg [1, 11]: 100% | mortality at 0.2 mg [5, 12]: 100% | Kill rate ([4]; 1.0 ppm in emulsion): 100%

COP(=O)(OCC1CC1(Cl)Cl)Oc1ccc(C#N)cc1 (centres unmarked) [compound 23]
mortality at 0.1 mg [1, 11]: 100% | mortality at 0.02 mg [5, 10]: 100% | LD50 [6]: 0.073 μg/fly | mortality at 0.005 % [2, 9]: ~90% | mortality at 0.001 % [3]: 80% | Kill rate ([4]; 1.0 ppm in emulsion): 100%

COP(=O)(OCC1CC1(Cl)Cl)Oc1ccc(SC)cc1 (centres unmarked) [compound 24]
mortality at 0.1 mg [1, 11]: 100% | mortality at 0.02 mg [5, 10]: 100% | LD50 [6]: 0.051 μg/fly | mortality at 0.002 % ([2]; Aphis fabae, 0.002 wt % in formulation, read-out: Kill rate): 100% | mortality at 0.002 % [3]: 80% | Kill rate ([4]; 1.0 ppm in emulsion): 100%

COP(=O)(OCC1CC1(Cl)Cl)Oc1ccc(SC)c(C)c1 (centres unmarked) [compound 25]
mortality at 0.2 mg [1, 11]: 100% | mortality at 0.02 mg [5, 10]: 80% | mortality at 0.005 % [2, 9]: 100% | mortality at 0.002 % [3]: 80% | Kill rate ([4]; 10.0 ppm in emulsion): 100%

COP(=O)(OCC1CC1(Cl)Cl)Oc1ccc(Cl)cc1Cl (centres unmarked) [compound 26]
mortality at 0.2 mg [5, 12]: 100% | mortality at 0.02 % [2, 8]: 100%

COP(=O)(OCC1CC1(Cl)Cl)Oc1ccc([N+](=O)[O-])cc1 (centres unmarked) [compound 27]
mortality at 0.02 mg ([1]; Blatta orientalis, 0.02 mg active ingredient per jar, read-out: Kill rate): 80% | mortality at 0.02 mg [5, 10]: 100% | LD50 [6]: 0.057 μg/fly | mortality at 0.005 % [2, 9]: ~90% | mortality at 0.001 % [3]: 100% | Kill rate ([4]; 1.0 ppm in emulsion): 100%

COP(=O)(OCC1C(C)C1(Cl)Cl)Oc1cc(Cl)c(Cl)cc1Cl (centres unmarked) [compound 28]
mortality at 0.2 mg [5, 12]: 80% | mortality at 0.02 % [2, 8]: 100%

COP(=O)(OCC1C(C)C1(Cl)Cl)Oc1ccc(Cl)cc1Cl (centres unmarked) [compound 29]
mortality at 0.02 % [2, 8]: 100%

COP(=O)(OCC1C(C)C1(Cl)Cl)Oc1ccc(SC)cc1 (centres unmarked) [compound 30]
mortality at 0.2 mg [5, 12]: 100% | mortality at 0.01 % [2, 9]: 100% | Kill rate ([4]; 10.0 ppm in emulsion): 100%

COP(=O)(OCC1C(C)C1(Cl)Cl)Oc1ccc([N+](=O)[O-])cc1 (centres unmarked) [compound 31]
mortality at 0.2 mg [1, 11]: 100% | mortality at 0.01 % [3]: 80% | Kill rate ([4]; 5.0 ppm in emulsion): 100%

COP(=O)(OCC1(C)CC1(Cl)Cl)Oc1ccc([N+](=O)[O-])cc1Cl (centres unmarked) [compound 32]
mortality at 0.2 mg [5, 12]: 100% | mortality at 0.008 % ([2]; Aphis fabae, 0.008 wt % in formulation, read-out: Kill rate): 100% | Kill rate ([4]; 10.0 ppm in emulsion): 100%

COP(=O)(OCC1(C)CC1(Cl)Cl)Oc1ccc([N+](=O)[O-])c(C)c1 (centres unmarked) [compound 33]
mortality at 0.2 mg [5, 12]: 80% | mortality at 0.01 % [2, 9]: 100%

From patent US4296108A, “2,2-Dichlorocyclopropyl-methyl-phosphoric acid derivatives” (priority 1979, dated 1981)
